According to patent publication US8388944B2, “Inactivating organisms using carbon dioxide at or near its supercritical pressure and temperature conditions” (Novasterilis Inc., priority 2003, dated 2013):
Where a name gives a salt, the structure may show the parent alone.

Experiments:
[1] = test system: B. subtilis spore and vegetative forms; assay: Inactivation of B. subtilis spore and vegetative forms, CFU counted after serial dilution and culturing; type: cell-based, Bacillus subtilis
Procedure: The reactor vessel was heated to 50° C. and equilibrated with CO2 at atmospheric pressure. The stirring and agitation mechanisms were activated and the reactor vessel pressurized to 3000 psi for 40 minutes. The CO2 pressure was then allowed to drop to 1500 psi at a rate of 300 psi/minute. Agitation was carried out for 1 minute.
The loop was sealed and pressurized to 3000 psi.
The stirring was stopped and the basket was removed from the reactor vessel.
The reactor vessel was heated to 50° C. and equilibrated with CO2 at atmospheric pressure. […] The CO2 pressure was then allowed to drop to 1500 psi at a rate of 300 psi/minute.

[2] = test system: B. stearothermophilus spores; assay: Inactivation of B. stearothermophilus spores, CFU counted after serial dilution and culturing; type: cell-based; conditions: for CFU/mL after treatment: start 2.3×10^6 CFU/mL
Description: The effects of using an additive in accordance with the present invention was compared using the process described by U.S. Pat. No. 6,149,864 to Dillow et al. for inactivating B. stearothermophilus spores. […] In contrast, 6.4-log inactivation (i.e., 2.3×10^6 CFU/mL to undetectable) was achieved using the process of the present invention (i.e., 1100 psi to 3000 psi with random and directional agitation, and including TFA as the chemical additive). The chemical additive was placed on a cotton ball and inserted in the chamber prior to closure. No further chemical additive was used.
The apparatus generally depicted in FIG. 1 was employed. A sample of B. stearothermophilus spores (1 mL) of greater than 10^6 CFU/mL was placed in 16 mm diameter test tubes in a stainless steel basket. Trifluoroacetic acid (4 mL) was transferred by syringe onto the surface of a cotton ball placed in the basket and water (6 mL) was placed at bottom of vessel. The basket was then loaded into the 600 mL reactor vessel. The reactor vessel was heated to 50° C. and equilibrated with CO2 at atmospheric pressure. The stirring and agitation mechanisms were activated and the reactor vessel pressurized to […] for 40 minutes. The CO2 pressure was then allowed to drop to 1100 psi at a rate of 300 psi/minute. Agitation by means of vibration of the vessel was carried out for 1 minute.
The pressurization/stirring/agitation/depressurization process was repeated a total of three times. After the third cycle, a series of three flushing cycles to remove the additive was performed by pressurizing and partial depressurizing the reactor vessel using CO2. The stirring was stopped and the basket was removed from the reactor vessel. Any remaining CFU were counted after serial dilution and culturing of both treated and untreated controls.

Escherichia coli = assay: Inactivation of bacteria by supercritical carbon dioxide; type: cell-based; conditions: 34° C., 2973 psi to 1500 psi, three cycles over 0.5 hours
Description: (§1) Maintaining the natural presentation environment for a given antigen generally enhances the protective qualities of a given vaccine. Ghost vaccine preparations result in empty bacterial shells that are intact except for holes produced by the lysis gene product when viewed by scanning electron microscopy (SEM). In contrast, organisms inactivated by supercritical carbon dioxide have intact cell walls (i.e., no lysis holes) and are not empty (i.e., the cytosolic contents are retained). Staphylococcus aureus and Pseudomonas aeruginosa were inactivated by at least 6-log with supercritical carbon dioxide at 40° C. and 2973 psi to 1500 psi for a total of six cycles over 4 hours. Escherichia coli was inactivated by at least 6-log with supercritical carbon dioxide at 34° C. and 2973 psi to 1500 psi for a total of three cycles over 0.5 hours.

Pseudomonas aeruginosa = assay: as above; type: cell-based; conditions: 40° C., 2973 psi to 1500 psi, six cycles over 4 hours
Description: as §1

Staphylococcus aureus = assay: as above; type: cell-based; conditions: 40° C., 2973 psi to 1500 psi, six cycles over 4 hours
Description: as §1

Salmonella typhimurium = assay: Inactivation of S. typhimurium, serial dilutions and colony counts; type: cell-based; conditions: Example 8: no chemical additive, water 1 vol. %, 35° C., 1500 psi constant for 15 minutes, greater than 10^9 CFU/mL
Procedure: A sample of Salmonella typhimurium (5 mL), […], of greater than 10^9 CFU/mL was placed into 16 mm test tubes in a stainless steel basket. Water was added on a cotton ball to the vessel at 1% of the total volume (1 vol. %) of the vessel. No chemical additive was placed in the vessel. The reactor vessel was heated to 35° C. and equilibrated with CO2 at atmospheric pressure. The stirring and agitation mechanisms were activated and vessel pressurized to 1500 psi and held constant for 15 minutes. The vessel was then depressurized and the contents removed for analysis. Quantitative analysis of any remaining Salmonella typhimurium in treated sample vs. untreated control was enumerated though serial dilutions and colony counts.

B. subtilis spore forms = conditions: process disclosed in the Dillow '864 patent, other investigators [27]; cited from earlier work

**Q.** What does the source list for `CC(=O)O` [Acetic acid, acetic acid]?
**A.** kill of B. subtilis present ([1]; Example 3B: as Example 3A, samples of less than 10^6 CFU/ml): total kill; log reduction in CFU extrapolated for greater than 10^6 CFU/ml ([1]; Example 3B: extrapolated from total kill of samples below 10^6 CFU/ml): 6 log; log reduction ([1]; Example 7: acetic acid 6 mL then 4 mL per cycle in CO2, 50° C., 3000 psi 40 minutes to 1500 psi, three cycles): at least 6 log

**Q.** What does the source list for `O=C(O)C(F)(F)F` [TFA, trifluoroacetic acid]?
**A.** log inactivation ([2]; TFA as chemical additive in supercritical CO2, 1100 psi to 3000 psi, random and directional agitation): 6.4 log; CFU/mL after treatment ([2]; TFA as chemical additive in supercritical CO2, 1100 psi to 3000 psi): undetectable

**Q.** With `O=C=O` [supercritical carbon dioxide, carbon dioxide] as the compound, how does the log inactivation ([2]; no chemical additive, Dillow '864 conditions, three cycles of 60° C. for two hours, 1500 psi to 3000 psi, random agitation) read?
**A.** The log inactivation was 1.0 log.

**Q.** What about the CFU/mL after treatment ([2]; no chemical additive, three cycles of 60° C. for two hours, 1500 psi to 3000 psi) of the same compound?
**A.** The CFU/mL after treatment was 2.1×10^5 CFU/mL.

**Q.** What about the log inactivation (Escherichia coli) of the same compound?
**A.** The log inactivation was “at least 6 log”.

**Q.** And the log inactivation (Pseudomonas aeruginosa)?
**A.** The log inactivation was “at least 6 log”.

**Q.** What about the log inactivation (Staphylococcus aureus) of the same compound?
**A.** Its log inactivation is “at least 6 log”.

**Q.** And the log reduction (Salmonella typhimurium)?
**A.** Its log reduction is 9 log.

**Q.** And the “log reduction in B. subtilis spore forms” value (B. subtilis spore forms)?
**A.** The value was 3.5 log.
